Experiments:
[1] = biological target: T1, Nuclear receptor subfamily 1 group I member 2 (Homo sapiens, UniProt O75469); test: Transactivation of PXR (unknown origin)
T1 sequence (O75469 whole entry): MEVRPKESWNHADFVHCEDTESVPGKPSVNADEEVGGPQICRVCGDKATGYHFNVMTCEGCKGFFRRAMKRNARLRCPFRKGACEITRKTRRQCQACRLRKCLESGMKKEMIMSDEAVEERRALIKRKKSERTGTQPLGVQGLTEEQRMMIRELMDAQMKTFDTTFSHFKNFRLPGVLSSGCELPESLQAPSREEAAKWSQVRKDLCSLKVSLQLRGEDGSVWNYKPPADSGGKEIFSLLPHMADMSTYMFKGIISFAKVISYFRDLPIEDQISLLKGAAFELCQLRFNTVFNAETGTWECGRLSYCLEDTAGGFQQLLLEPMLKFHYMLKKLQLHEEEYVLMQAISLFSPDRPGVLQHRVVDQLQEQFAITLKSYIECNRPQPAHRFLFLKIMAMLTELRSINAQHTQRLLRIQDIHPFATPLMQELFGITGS

[2] = biological target: T2, Potassium voltage-gated channel subfamily A member 5 (Homo sapiens, UniProt P22460); test: Antagonist activity at human Kv1.5 expressed in mouse L929 cells assessed as inhibition of delayed rectifier repolarization current by patch clamp assay; format: cell-based
T2 sequence (P22460 whole entry): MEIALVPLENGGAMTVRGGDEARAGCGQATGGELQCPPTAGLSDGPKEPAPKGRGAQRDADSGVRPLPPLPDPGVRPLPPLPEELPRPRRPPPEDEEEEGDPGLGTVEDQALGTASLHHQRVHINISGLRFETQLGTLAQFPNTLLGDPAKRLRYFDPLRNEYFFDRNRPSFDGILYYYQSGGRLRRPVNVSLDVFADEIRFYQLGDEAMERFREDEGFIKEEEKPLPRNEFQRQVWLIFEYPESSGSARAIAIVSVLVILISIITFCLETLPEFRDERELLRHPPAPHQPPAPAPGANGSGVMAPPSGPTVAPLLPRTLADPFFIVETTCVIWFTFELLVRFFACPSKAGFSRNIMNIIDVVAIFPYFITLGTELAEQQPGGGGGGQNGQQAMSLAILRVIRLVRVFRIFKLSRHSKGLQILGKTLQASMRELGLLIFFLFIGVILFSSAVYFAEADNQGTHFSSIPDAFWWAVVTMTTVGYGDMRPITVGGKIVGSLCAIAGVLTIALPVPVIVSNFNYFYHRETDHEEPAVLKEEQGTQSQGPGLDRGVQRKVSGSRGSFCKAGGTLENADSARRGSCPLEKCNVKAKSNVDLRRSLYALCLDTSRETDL

[3] = Clearance in Sprague-Dawley rat at 1 mg/kg, iv; format: ADME, organism-based; set-up: dose 1 mg/kg, route intravenous; settings: in vivo
[4] = Half life in Sprague-Dawley rat at 1 mg/kg, iv; format: ADME, organism-based; set-up: dose 1 mg/kg, route intravenous; settings: in vivo
hERG (KCNH2) = hERG (KCNH2) (Homo sapiens, UniProt Q12809); test: Inhibition of human ERG current in HEK293 cells at 10 uM by patch clamp method relative to control; format: cell-based; settings: HEK293 cells expressing human ERG
hERG (KCNH2), sequence (Q12809 whole entry): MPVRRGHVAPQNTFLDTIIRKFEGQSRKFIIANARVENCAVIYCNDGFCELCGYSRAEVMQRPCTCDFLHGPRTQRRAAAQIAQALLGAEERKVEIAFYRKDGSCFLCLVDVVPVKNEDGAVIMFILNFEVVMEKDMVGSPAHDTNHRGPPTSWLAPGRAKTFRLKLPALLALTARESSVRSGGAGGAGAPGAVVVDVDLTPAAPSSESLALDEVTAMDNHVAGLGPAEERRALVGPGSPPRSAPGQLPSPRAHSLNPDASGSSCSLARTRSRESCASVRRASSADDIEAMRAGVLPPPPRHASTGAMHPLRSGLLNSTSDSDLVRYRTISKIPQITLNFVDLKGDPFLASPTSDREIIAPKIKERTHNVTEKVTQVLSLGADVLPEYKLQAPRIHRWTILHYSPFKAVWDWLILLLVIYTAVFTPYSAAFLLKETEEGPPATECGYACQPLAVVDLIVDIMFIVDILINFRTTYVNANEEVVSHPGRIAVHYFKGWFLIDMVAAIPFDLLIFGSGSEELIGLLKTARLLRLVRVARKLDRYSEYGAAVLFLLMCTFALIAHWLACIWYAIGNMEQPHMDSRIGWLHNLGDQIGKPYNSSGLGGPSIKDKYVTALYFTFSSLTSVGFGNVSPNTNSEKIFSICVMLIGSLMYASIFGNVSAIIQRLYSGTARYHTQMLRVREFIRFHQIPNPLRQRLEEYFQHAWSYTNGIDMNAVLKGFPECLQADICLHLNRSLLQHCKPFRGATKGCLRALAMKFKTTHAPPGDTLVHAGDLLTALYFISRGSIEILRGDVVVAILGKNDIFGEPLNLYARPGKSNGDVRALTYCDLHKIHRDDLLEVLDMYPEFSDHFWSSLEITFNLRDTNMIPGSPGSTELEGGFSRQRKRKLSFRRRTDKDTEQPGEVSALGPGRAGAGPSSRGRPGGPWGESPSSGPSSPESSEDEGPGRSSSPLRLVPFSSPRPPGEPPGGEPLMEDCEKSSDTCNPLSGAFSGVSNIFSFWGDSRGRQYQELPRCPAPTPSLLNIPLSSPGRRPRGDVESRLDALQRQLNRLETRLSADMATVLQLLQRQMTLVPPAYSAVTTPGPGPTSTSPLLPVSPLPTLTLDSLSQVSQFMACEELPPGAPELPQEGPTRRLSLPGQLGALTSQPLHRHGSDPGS

[5] = biological target: T2, Potassium voltage-gated channel subfamily A member 5; test: Antagonist activity at human Kv1.5 expressed in mouse L929 cells assessed as inhibition of delayed rectifier repolarization current at 0.3 uM by patch clamp assay relative to control; format: cell-based
[6] = biological target: Voltage-gated L-type calcium channel (Homo sapiens, UniProt Q13936+Q13698+Q01668+O60840); test: Inhibition of L-type calcium channel (unknown origin)
[7] = Inhibition of sodium channel (unknown origin); set-up: species or system Homo sapiens
[8] = Drug uptake in Sprague-Dawley rat brain at 0.3 mg/kg, iv administered as 5 mins infusion measured after 10 mins; format: ADME, organism-based; set-up: dose 0.3 mg/kg, route intravenous; settings: read-out: Drug uptake
[9] = Plasma concentration in Sprague-Dawley rat at 0.3 mg/kg, iv administered as 5 mins infusion measured after 10 mins; format: ADME, organism-based; set-up: dose 0.3 mg/kg, route intravenous
[10] = Plasma concentration in Sprague-Dawley rat at 0.3 mg/kg, iv administered as 5 mins infusion measured at 5 mins; format: ADME, organism-based; set-up: dose 0.3 mg/kg, route intravenous
Rattus norvegicus [11] = test: Antiarrhythmic activity in Sprague-Dawley rat assessed as decrease in ventricular effective refractory period at 0.3 mg/kg, iv administered as 5 mins infusion measured after 5 mins relative to control; format: functional, Heart; set-up: scale not given: the % may be the effect or the level left
Rattus norvegicus [12] = test: Antiarrhythmic activity in Sprague-Dawley rat assessed as decrease in QT interval at 0.3 mg/kg, iv administered as 5 mins infusion measured after 5 mins relative to control; format: functional, Heart; set-up: scale not given: the % may be the effect or the level left
Rattus norvegicus [13] = test: Antiarrhythmic activity in Sprague-Dawley rat assessed as increase in heart rate at 0.3 mg/kg, iv administered as 5 mins infusion measured after 5 mins relative to control; format: functional
Rattus norvegicus [14] = test: Antiarrhythmic activity in Sprague-Dawley rat assessed as decrease in blood pressure at 0.3 mg/kg, iv administered as 5 mins infusion measured after 5 mins; format: functional; set-up: scale not given: the % may be the effect or the level left
Cytochrome P450 3A4 = Cytochrome P450 3A4 (Homo sapiens, UniProt P08684); test: Inhibition of CYP3A4 (unknown origin); format: ADME
Cytochrome P450 3A4, sequence (P08684 whole entry): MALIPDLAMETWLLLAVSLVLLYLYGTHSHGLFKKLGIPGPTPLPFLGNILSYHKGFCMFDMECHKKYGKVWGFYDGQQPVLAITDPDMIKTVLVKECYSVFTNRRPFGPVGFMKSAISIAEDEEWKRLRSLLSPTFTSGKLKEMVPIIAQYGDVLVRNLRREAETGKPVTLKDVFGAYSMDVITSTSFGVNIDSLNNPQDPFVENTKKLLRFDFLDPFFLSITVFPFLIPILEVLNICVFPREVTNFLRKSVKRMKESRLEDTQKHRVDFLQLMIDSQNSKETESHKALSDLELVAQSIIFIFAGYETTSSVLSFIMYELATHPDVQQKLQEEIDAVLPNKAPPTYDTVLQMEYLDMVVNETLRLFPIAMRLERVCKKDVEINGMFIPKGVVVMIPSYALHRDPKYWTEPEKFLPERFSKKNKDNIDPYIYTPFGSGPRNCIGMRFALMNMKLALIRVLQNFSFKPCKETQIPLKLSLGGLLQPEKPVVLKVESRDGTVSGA

Cytochrome P450 2D6 = Cytochrome P450 2D6 (Homo sapiens, UniProt P10635); test: Inhibition of CYP2D6 (unknown origin); format: ADME
Cytochrome P450 2D6, sequence (P10635 whole entry): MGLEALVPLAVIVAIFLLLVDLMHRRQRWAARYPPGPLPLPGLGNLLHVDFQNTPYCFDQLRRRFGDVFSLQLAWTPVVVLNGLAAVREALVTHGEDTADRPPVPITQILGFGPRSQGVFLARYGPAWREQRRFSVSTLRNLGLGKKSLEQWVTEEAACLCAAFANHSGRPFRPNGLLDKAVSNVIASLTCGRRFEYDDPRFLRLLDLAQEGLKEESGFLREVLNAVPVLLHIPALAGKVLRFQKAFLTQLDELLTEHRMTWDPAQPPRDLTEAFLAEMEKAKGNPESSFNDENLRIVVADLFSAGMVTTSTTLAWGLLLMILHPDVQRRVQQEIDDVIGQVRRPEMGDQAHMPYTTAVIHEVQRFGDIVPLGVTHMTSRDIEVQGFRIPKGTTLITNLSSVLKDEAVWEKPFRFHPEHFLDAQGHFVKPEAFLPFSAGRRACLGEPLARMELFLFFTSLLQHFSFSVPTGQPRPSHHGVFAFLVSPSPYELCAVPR

Cytochrome P450 2C19 = Cytochrome P450 2C19 (Homo sapiens, UniProt P33261); test: Inhibition of CYP2C19 (unknown origin); format: ADME
Cytochrome P450 2C19, sequence (P33261 whole entry): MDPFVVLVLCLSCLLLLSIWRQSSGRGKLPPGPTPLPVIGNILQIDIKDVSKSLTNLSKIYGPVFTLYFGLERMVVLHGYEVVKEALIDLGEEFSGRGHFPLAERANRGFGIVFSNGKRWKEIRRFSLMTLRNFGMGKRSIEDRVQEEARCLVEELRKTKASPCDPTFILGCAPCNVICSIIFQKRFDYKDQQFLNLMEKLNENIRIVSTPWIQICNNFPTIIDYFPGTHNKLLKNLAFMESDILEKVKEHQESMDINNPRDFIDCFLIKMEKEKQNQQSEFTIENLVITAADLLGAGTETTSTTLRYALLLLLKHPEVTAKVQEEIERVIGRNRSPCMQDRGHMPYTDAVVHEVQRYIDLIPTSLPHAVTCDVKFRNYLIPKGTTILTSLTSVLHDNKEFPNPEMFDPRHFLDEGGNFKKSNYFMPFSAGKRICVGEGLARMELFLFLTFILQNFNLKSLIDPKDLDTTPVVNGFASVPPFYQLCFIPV

Cytochrome P450 2C9 = Cytochrome P450 2C9 (Homo sapiens, UniProt P11712); test: Inhibition of CYP2C9 (unknown origin); format: ADME
Cytochrome P450 2C9, sequence (P11712 whole entry): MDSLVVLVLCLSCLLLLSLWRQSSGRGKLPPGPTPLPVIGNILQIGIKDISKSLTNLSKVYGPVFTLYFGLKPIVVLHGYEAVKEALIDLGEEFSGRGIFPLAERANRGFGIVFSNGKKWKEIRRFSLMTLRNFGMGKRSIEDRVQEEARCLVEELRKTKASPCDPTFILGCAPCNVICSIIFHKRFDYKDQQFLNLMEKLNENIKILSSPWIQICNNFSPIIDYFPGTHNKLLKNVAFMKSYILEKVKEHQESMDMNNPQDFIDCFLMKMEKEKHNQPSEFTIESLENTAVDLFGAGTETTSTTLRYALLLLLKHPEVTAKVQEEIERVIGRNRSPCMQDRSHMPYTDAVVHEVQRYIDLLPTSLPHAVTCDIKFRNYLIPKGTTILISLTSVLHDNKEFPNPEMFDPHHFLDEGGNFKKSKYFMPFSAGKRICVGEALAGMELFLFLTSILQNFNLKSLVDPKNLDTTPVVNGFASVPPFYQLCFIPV

## CC1=C(c2ncnn2-c2cccc(C(F)(F)F)n2)[C@@H](c2ccc(Cl)c(Cl)c2)n2nc(C(F)(F)F)cc2N1
[1]
  EC20: 140 nM
[2]
  IC50: 96 nM

## CC1=C(c2ncn(-c3ccccc3C)n2)[C@@H](c2ccc(Cl)c(Cl)c2)n2nc(C)cc2N1
[2]
  IC50: 722 nM

## CC1=C(C(=O)N2CCN(c3ccc(F)cc3)CC2)[C@@H](c2ccc(Cl)c(Cl)c2)n2nccc2N1
[3]
  clearance: 134 mL/min/kg
[4]
  half-life: 36 min

## CC1=C(c2ncnn2-c2cc(C)ccn2)[C@@H](c2ccc(Cl)c(Cl)c2)n2nc(C(F)(F)F)cc2N1
[1]
  EC20: 440 nM
[2]
  IC50: 410 nM

## CC1=C(c2ncnn2CCCC(F)(F)F)[C@@H](c2ccc(Cl)c(Cl)c2)n2nccc2N1
[2]
  IC50: 103 nM

## COc1cccc(-n2ncnc2C2=C(C)Nc3cc(C(F)(F)F)nn3[C@@H]2c2ccc(Cl)c(Cl)c2)n1
[1]
  EC20: 960 nM
hERG (KCNH2)
  inhibition at 10 µM: 98%
[2]
  IC50: 87 nM

## CC1=C(c2ncn[nH]2)[C@@H](c2ccc(Cl)c(Cl)c2)n2nccc2N1
[5]
  inhibition: 8%

## CC1=C(c2ncnn2-c2ccccn2)[C@@H](c2ccc(Cl)c(Cl)c2)n2nc(C(F)(F)F)cc2N1
[5]
  inhibition: 11%

## CC1=C(c2ncn(-c3ccc(C)cc3)n2)[C@@H](c2ccc(Cl)c(Cl)c2)n2nc(C)cc2N1
[5]
  inhibition: 14%

## COc1ccccc1-n1cnc(C2=C(C)Nc3cc(C)nn3[C@@H]2c2ccc(Cl)c(Cl)c2)n1
[5]
  inhibition: 4%

## CCOc1cccc(-n2ncnc2C2=C(C)Nc3cc(C(F)(F)F)nn3[C@@H]2c2ccc(Cl)c(Cl)c2)n1
[1]
  EC20: 1100 nM
[2]
  IC50: 223 nM

## CC1=C(c2ncnn2C(C)C)[C@@H](c2ccc(Cl)c(Cl)c2)n2nccc2N1
hERG (KCNH2)
  inhibition at 10 µM: 26%
[2]
  IC50: 89 nM

## CC1=C(c2ncnn2-c2ccc(C)cc2)[C@@H](c2ccc(Cl)c(Cl)c2)n2nccc2N1
[2]
  IC50: 80 nM

## CC1=C(c2ncnn2CCC(F)(F)F)[C@@H](c2ccc(Cl)c(Cl)c2)n2nccc2N1
[2]
  IC50: 151 nM

## CC1=C(c2ncnn2Cc2ccccc2)[C@@H](c2ccc(Cl)c(Cl)c2)n2nccc2N1
[2]
  IC50: 135 nM

## CC1=C(c2ncnn2C2CCC2)[C@@H](c2ccc(Cl)c(Cl)c2)n2nccc2N1
[2]
  IC50: 48 nM

## CCCn1ncnc1C1=C(C)Nc2ccnn2[C@@H]1c1ccc(Cl)c(Cl)c1
[2]
  IC50: 102 nM

## CC1=C(c2ncnn2C2CCC2)[C@@H](c2ccc(Cl)c(Cl)c2)n2nc(C(C)(C)C)cc2N1
[2]
  IC50: 283 nM

## CCn1ccnc1C1=C(C)Nc2cc(C(F)(F)F)nn2[C@@H]1c1ccc(Cl)c(Cl)c1
[1]
  EC20: 110 nM
[2]
  IC50: 128 nM

## CC1=C(c2ncnn2-c2cccc(F)c2)[C@@H](c2ccc(Cl)c(Cl)c2)n2nccc2N1
[2]
  IC50: 97 nM

## CC1=C(c2ncnn2-c2cccc(C)n2)[C@@H](c2ccc(Cl)c(Cl)c2)n2nc(C(F)(F)F)cc2N1
[1]
  EC20: 440 nM
[2]
  IC50: 211 nM

## COc1cccc(-n2cnc(C3=C(C)Nc4cc(C)nn4[C@@H]3c3ccc(Cl)c(Cl)c3)n2)c1
[5]
  inhibition: 14%

## CC1=C(c2ncnn2-c2ccc(C)cc2)[C@@H](c2ccc(Cl)c(Cl)c2)n2nc(C)cc2N1
[5]
  inhibition: 25%

## CC1=C(c2ncnn2CC(F)(F)F)[C@@H](c2ccc(Cl)c(Cl)c2)n2nccc2N1
[2]
  IC50: 200 nM

## CC1=C(c2ncnn2C2CCCCC2)[C@@H](c2ccc(Cl)c(Cl)c2)n2nccc2N1
hERG (KCNH2)
  inhibition at 10 µM: 87%
[2]
  IC50: 59 nM

## CC1=C(c2ncnn2C2CCC2)[C@@H](c2ccc(Cl)c(Cl)c2)n2nc(C)cc2N1
[3]
  clearance: 101 mL/min/kg
[4]
  half-life: 36 min
hERG (KCNH2)
  inhibition at 10 µM: 40%
[2]
  IC50: 94 nM

## CC1=C(c2ncn(-c3ccccc3F)n2)[C@@H](c2ccc(Cl)c(Cl)c2)n2nc(C)cc2N1
[5]
  inhibition: 23%

## CCn1ncnc1C1=C(C)Nc2ccnn2[C@@H]1c1ccc(Cl)c(Cl)c1
[2]
  IC50: 191 nM

## COc1ccc(-n2cnc(C3=C(C)Nc4cc(C)nn4[C@@H]3c3ccc(Cl)c(Cl)c3)n2)cc1
[5]
  inhibition: 5%

## CC1=C(c2ncnn2-c2ccc(F)cc2)[C@@H](c2ccc(Cl)c(Cl)c2)n2nccc2N1
[2]
  IC50: 115 nM

## CC1=C(c2ncnn2C2CCC(C(F)(F)F)CC2)[C@@H](c2ccc(Cl)c(Cl)c2)n2nc(C(F)(F)F)cc2N1 (single isomer, unassigned; isomer 1)
[6]
  IC50: 5200 nM
[7]
  IC50: 46000 nM
[8]
  concentration at 10 min: 30 nM
[9]
  concentration at 10 min: 430 nM
[10]
  concentration at 5 min: 1600 nM
Rattus norvegicus [11]
  Activity: 25%
Rattus norvegicus [12]
  Activity: 8%
Rattus norvegicus [13]
  Activity: 6%
Rattus norvegicus [14]
  Activity: 28%
[3]
  clearance: 29 mL/min/kg
[4]
  half-life: 72 min
Cytochrome P450 3A4
  INH: 40 µM
Cytochrome P450 2D6
  INH: 22 µM
Cytochrome P450 2C19
  INH: 6 µM
Cytochrome P450 2C9
  INH: 7 µM
[1]
  EC20: 5000 nM
hERG (KCNH2)
  inhibition at 10 µM: 38%
[2]
  IC50: 133 nM

## CC1=C(c2ncnn2-c2ccccc2F)[C@@H](c2ccc(Cl)c(Cl)c2)n2nccc2N1
[2]
  IC50: 74 nM

## CC1=C(c2ncnn2-c2cccc(F)n2)[C@@H](c2ccc(Cl)c(Cl)c2)n2nc(C(F)(F)F)cc2N1
[1]
  EC20: 70 nM
[2]
  IC50: 256 nM

## CC1=C(c2ncnn2C(C)(C)C)[C@@H](c2ccc(Cl)c(Cl)c2)n2nccc2N1
[2]
  IC50: 223 nM

## CC1=C(c2ncnn2CCO)[C@@H](c2ccc(Cl)c(Cl)c2)n2nccc2N1
[5]
  inhibition: 6%

## CC1=C(c2ncnn2-c2cccc(Cl)n2)[C@@H](c2ccc(Cl)c(Cl)c2)n2nc(C(F)(F)F)cc2N1
[2]
  IC50: 190 nM

## CC1=C(c2ncnn2CC2CC2)[C@@H](c2ccc(Cl)c(Cl)c2)n2nccc2N1
[2]
  IC50: 229 nM

## CC1=C(c2ncnn2C2CCCCC2)[C@@H](c2ccc(Cl)c(Cl)c2)n2nc(C)cc2N1
[2]
  IC50: 127 nM

## COc1ccccc1-n1ncnc1C1=C(C)Nc2ccnn2[C@@H]1c1ccc(Cl)c(Cl)c1
[2]
  IC50: 116 nM

## COCc1cc2n(n1)[C@H](c1ccc(Cl)c(Cl)c1)C(c1ncnn1C1CCC1)=C(C)N2
[5]
  inhibition: 25%

## CC1=C(c2ncnn2-c2ccc(C)cn2)[C@@H](c2ccc(Cl)c(Cl)c2)n2nc(C(F)(F)F)cc2N1
[2]
  IC50: 389 nM

## CCOCCn1ccnc1C1=C(C)Nc2cc(C(F)(F)F)nn2[C@@H]1c1ccc(Cl)c(Cl)c1
[3]
  clearance: 45 mL/min/kg
[4]
  half-life: 36 min
[1]
  EC20: 640 nM
[2]
  IC50: 98 nM

## CC1=C(c2ncnn2C2CCC2)[C@@H](c2ccc(Cl)c(Cl)c2)n2nc(C(F)(F)F)cc2N1
[2]
  IC50: 165 nM

## CC1=C(c2nccn2C(C)C)[C@@H](c2ccc(Cl)c(Cl)c2)n2nc(C(F)(F)F)cc2N1
[3]
  clearance: 63 mL/min/kg
[4]
  half-life: 54 min
[1]
  EC20: 110 nM
[2]
  IC50: 204 nM

From ChEMBL document CHEMBL2331425, “Triazolo and imidazo dihydropyrazolopyrimidine potassium channel antagonists” (Bioorg Med Chem Lett, 2013)
